{
  "source": "patent US20230355605A1",
  "about": "“DRUG FOR ENHANCING FIBRINOLYTIC SYSTEM, AND USE THEREFOR” (priority 2020, published 2023)",
  "key": {"CHL/IU cells": {"test_system": "CHL/IU cells", "test": "Chromosomal abnormality study", "assay_type": "cell-based, Chinese hamster", "conditions": "with and without S9 mix", "procedure": "A study on the clastogenic property of the present compound was performed in the presence of a drug metabolism-activating enzyme (S9 mix) (hereinafter referred to as a “metabolic activation method”) and in the absence of a drug metabolism-activating enzyme (S9 mix) (hereinafter referred to as a “direct method”) using mammalian cultured cells (Chinese hamster cultured cells (CHL/IU cells))."}, "rats": {"test_system": "rats", "test": "Reproductive and developmental toxicity study (fertility and early embryogenesis)", "assay_type": "in vivo, rat", "conditions": "oral, male and female rats", "text": "The effect of oral administration of the present compound on fertility and early embryogenesis up to implantation was examined using rats. Specifically, the present compound was orally administered to male and female rats for 2 weeks before mating, during mating, until the day before necropsy for the males, and until day 7 of gestation for the females, and the effect on fertility and early embryogenesis of the parents was examined. During the study period, the general conditions, body weights, and food consumption of all of the animals were observed and measured, and a fertility test was performed for the males and females. For the females, an estrous cycle test was performed, and a Cesarean section test was performed at day 13 of gestation. In the females, necropsy was performed at the time of Cesarean section, and in the males, necropsy was performed after completion of the Cesarean section of females."}, "[1]": {"test_system": "conscious cynomolgus monkeys", "test": "Effect on cardiovascular and respiratory system (telemetry, blood gas)", "assay_type": "in vivo, cynomolgus monkey", "conditions": "single oral dose, up to 300 mg/kg", "procedure": "The effect of the present compound on the cardiovascular system and the respiratory system was examined by a telemetry method and blood gas measurement using conscious cynomolgus monkeys. Systemic exposure of the test substance was also evaluated. Specifically, a control substance (a 0.5 w/v% carmellose sodium aqueous solution) and the present compound were orally administered at single ascending dosages at intervals of 7 days, and the heart rate, blood pressure (systolic blood pressure, diastolic blood pressure, and mean blood pressure), electrocardiogram (PR interval, QRS duration, QT interval, and QTc interval), respiratory rate, and body temperature were measured before administration and 1, 2, 4, 6, and 24 hours after administration on each administration day with the monkeys unanesthetized and unrestrained. Furthermore, before administration and 2, 6, and 24 hours after administration on each administration day, arterial blood was collected, and blood gases (oxygen partial pressure, carbon dioxide partial pressure, pH, and oxygen saturation) were measured. Systemic exposure was also evaluated by measuring the concentration of the test substance in plasma."}, "PAI-1": {"molecular_target": "T1, PAI-1 (Homo sapiens, UniProt P05121)", "T1 construct": "from tissue; host or cells: plasma of human subjects (phase I study)", "T1 sequence (P05121 24-402)": "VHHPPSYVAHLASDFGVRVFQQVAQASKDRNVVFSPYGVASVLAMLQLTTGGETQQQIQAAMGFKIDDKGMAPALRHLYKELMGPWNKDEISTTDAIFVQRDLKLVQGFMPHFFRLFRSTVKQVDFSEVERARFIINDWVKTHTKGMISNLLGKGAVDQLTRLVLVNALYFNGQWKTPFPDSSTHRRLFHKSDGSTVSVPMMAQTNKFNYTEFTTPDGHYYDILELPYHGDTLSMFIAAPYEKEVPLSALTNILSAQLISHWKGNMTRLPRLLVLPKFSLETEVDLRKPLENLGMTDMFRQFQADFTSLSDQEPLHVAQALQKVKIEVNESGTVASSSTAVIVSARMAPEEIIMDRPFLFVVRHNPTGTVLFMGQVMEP", "test": "PAI-1 activity in blood, phase I repeated oral dose study", "assay_type": "in vivo", "procedure": "The pharmacological activities (PAI-1 activity and t-PA activity) were evaluated using blood collected from the subjects before and after administration of the present compound or the placebo as test samples. Blood was collected before administration and 2, 4, and 8 hours after administration on the first day of the experiment (day 1) and day 7 after the start of the experiment, and on the other days, blood was collected once a day before administration (only before administration on days 2 to 6, day 8, and day 11 after the start of administration).\nAfter collecting blood samples from the subjects, the samples were treated with 3.2% citric acid salt and centrifuged at 4° C., 1,800 g for 10 minutes to obtain plasma. The collected plasma was used for measurement of PAI-1 activity and stored frozen at -80° C. or less until measurement.\nThe PAI-1 activity was measured using a human PAI-1 activity assay kit (produced by Molecular Innovations Inc.). In this system, a plasma sample collected from a subject is placed on a plate coated with urokinase plasminogen activator (uPA), PAI-1 in the sample is reacted with uPA, and then active PAI-1 bound to uPA is measured as PAI-1 activity using an antigen-antibody reaction with an anti-PAI-1 antibody by measuring the absorbance at a wavelength of 450 nm with a plate reader."}, "[2]": {"test_system": "chronic-phase chronic myeloid leukemia (CML) patients", "test": "Phase II study in combination with TKI in chronic-phase CML patients (4 weeks)", "assay_type": "in vivo, human", "text": "The present compound and a tyrosine kinase inhibitor (hereinafter referred to as “TKI”) were used in combination and repeatedly administered orally to patients with chronic-phase chronic myeloid leukemia (CML patients) to evaluate the safety of the present compound and the effectiveness of the present compound against CML.\nOral administration of the TKI, which is a drug used in combination, was continued for a total of 12 weeks, including the 8-week observation period. The safety analysis set (SAS) and the full analysis set (FAS) each consisted of the 21 patients, and the per protocol set (PPS) consisted of 18 patients."}, "BCR-ABL^IS": {"test_system": "BCR-ABL^IS", "test": "Phase II long-term administration study with TKI in chronic-phase CML: efficacy against CML", "assay_type": "in vivo, human", "conditions": "for Cumulative number of patients who achieved a DMR / Cumulative rate of patients who achieved a DMR: with TKI", "procedure": "Further, the efficacy of the combined use of the present compound and the TKI against CML was evaluated.\nThe present compound was orally administered after breakfast to chronic-phase CML patients (33 patients) aged 20 or older and younger than 80 who had been treated orally with the TKI for 1 year or more. The dosage of the present compound was started at 150 mg/day. […] No patients dropped out or were withdrawn from the study, and all of the patients were included in analysis (SAS analysis, FAS analysis, and PPS analysis).\nThe efficacy against CML was evaluated from the following two points: • (1) cumulative achievement rate of CML patients who reached a DMR (BCR-ABL^IS: 0.0032% or less) • (2) change in BCR-ABL^IS\nWithin 28 days before the start of administration of the present compound, and 4, 8, 12, 24, 36, and 48 weeks after the start of administration of the present compound or at discontinuation, the investigator collected peripheral blood and conducted a test using a BCR-ABL^IS quantitative PCR kit (produced by Sysmex Corporation) to obtain results (IS%, ABL copy number, and BCR-ABL copy number)."}},
  "data": [
    {"smiles": "O=C(Nc1ccc(Cl)cc1C(=O)[O-])c1cccc(-c2cccc3cccnc23)c1.[Na+]", "note": "[present compound, sodium 5-chloro-2-({ [3-(quinolin-8-yl)phenyl]carbonyl}amino)benzoate]", "values": [
      {"measurement": "clastogenic effect", "setting": "CHL/IU cells", "result": "no clastogenic effect"},
      {"measurement": "no-observed-adverse-effect level in the parent animals, including fertility", "setting": "rats", "result": 1000, "unit": "mg/kg/day"},
      {"measurement": "no-observed-adverse-effect level with respect to early embryogenesis", "setting": "rats", "result": 1000, "unit": "mg/kg/day"},
      {"measurement": "effect on the cardiovascular system or the respiratory system", "setting": "[1]", "result": "no effect"},
      {"measurement": "PAI-1 activity in blood vs placebo", "setting": "PAI-1; 60 mg/day oral, days 1 and 7", "result": "neither PAI-1 activity nor t-PA activity was different"},
      {"measurement": "time after administration of maximal decrease in PAI-1 activity", "setting": "PAI-1; 120 mg/day oral", "result": 8, "unit": "h"},
      {"measurement": "PAI-1 activity in blood", "setting": "PAI-1; 120 mg/day oral, days 1 and 7", "result": "decreased"},
      {"measurement": "dosage at which PAI-1 is significantly inhibited and t-PA enhanced in humans", "setting": "PAI-1; oral", "result": "at least 120 mg per day"},
      {"measurement": "cumulative DMR achievement rate (MR 4.5, BCR-ABL^IS≤0.0032%)", "setting": "[2]; 120 mg once daily 4 weeks in combination with TKI", "result": "increased"},
      {"measurement": "adverse events causally related to the investigational drug", "setting": "[2]; 120 mg once daily 4 weeks with TKI, 21 patients (SAS)", "result": "No adverse events"},
      {"measurement": "Cumulative number of patients who achieved a DMR", "setting": "BCR-ABL^IS; 4 weeks after the start of administration, 33 patients", "result": 5},
      {"measurement": "Cumulative rate of patients who achieved a DMR", "setting": "BCR-ABL^IS; 4 weeks after the start of administration", "result": 15.2, "unit": "%"},
      {"measurement": "Cumulative number of patients who achieved a DMR", "setting": "BCR-ABL^IS; 8 weeks after the start of administration, 33 patients", "result": 9},
      {"measurement": "Cumulative rate of patients who achieved a DMR", "setting": "BCR-ABL^IS; 8 weeks after the start of administration", "result": 27.3, "unit": "%"},
      {"measurement": "Cumulative number of patients who achieved a DMR", "setting": "BCR-ABL^IS; 12 weeks after the start of administration, 33 patients", "result": 9},
      {"measurement": "Cumulative rate of patients who achieved a DMR", "setting": "BCR-ABL^IS; 12 weeks after the start of administration", "result": 27.3, "unit": "%"},
      {"measurement": "change in BCR-ABL^IS vs baseline", "setting": "BCR-ABL^IS; 15 patients, 150 mg/day continuous, weeks 12 and 24", "result": "significant decrease"},
      {"measurement": "change in BCR-ABL^IS vs baseline", "setting": "BCR-ABL^IS; 18 patients, 150 mg/day to 180 mg/day increase, week 48", "result": "significant decrease"},
      {"measurement": "Cumulative number of patients who achieved a DMR", "setting": "BCR-ABL^IS; 24 weeks after the start of administration, 33 patients", "result": 10},
      {"measurement": "Cumulative rate of patients who achieved a DMR", "setting": "BCR-ABL^IS; 24 weeks after the start of administration", "result": 30.3, "unit": "%"},
      {"measurement": "change in BCR-ABL^IS vs baseline", "setting": "BCR-ABL^IS; 33 patients, from week 12 onward, Wilcoxon test", "result": "significant decrease"},
      {"measurement": "Cumulative number of patients who achieved a DMR", "setting": "BCR-ABL^IS; 36 weeks after the start of administration, 33 patients", "result": 11},
      {"measurement": "Cumulative rate of patients who achieved a DMR", "setting": "BCR-ABL^IS; 36 weeks after the start of administration", "result": 33.3, "unit": "%"},
      {"measurement": "Cumulative number of patients who achieved a DMR", "setting": "BCR-ABL^IS; 48 weeks after the start of administration, 33 patients", "result": 11},
      {"measurement": "Cumulative rate of patients who achieved a DMR", "setting": "BCR-ABL^IS; 48 weeks after the start of administration", "result": 33.3, "unit": "%"},
      {"measurement": "cumulative DMR achievement rate", "setting": "BCR-ABL^IS; from week 36 onward, 150 to 180 mg/day with TKI", "result": 33.3, "unit": "%"},
      {"measurement": "patients who achieved a DMR", "setting": "BCR-ABL^IS; of the 33 patients, 150 to 180 mg/day with TKI", "result": 11, "unit": "patients"},
      {"measurement": "BCR-ABL^IS level (mean ± standard deviation)", "setting": "BCR-ABL^IS; week 4, 33 patients, P = 0.1222", "result": "0.0134±0.01301", "unit": "%"},
      {"measurement": "BCR-ABL^IS level (mean ± standard deviation)", "setting": "BCR-ABL^IS; week 8, 33 patients, P = 0.0929", "result": "0.0129±0.01569", "unit": "%"},
      {"measurement": "BCR-ABL^IS level (mean ± standard deviation)", "setting": "BCR-ABL^IS; week 12, 33 patients, P = 0.0228", "result": "0.0133±0.02012", "unit": "%"},
      {"measurement": "BCR-ABL^IS level (mean ± standard deviation)", "setting": "BCR-ABL^IS; week 24, 33 patients, P = 0.0427", "result": "0.0149±0.02596", "unit": "%"},
      {"measurement": "BCR-ABL^IS level (mean ± standard deviation)", "setting": "BCR-ABL^IS; week 36, 33 patients, P = 0.0304", "result": "0.0152±0.03427", "unit": "%"},
      {"measurement": "BCR-ABL^IS level (mean ± standard deviation)", "setting": "BCR-ABL^IS; week 48, 33 patients, P = 0.0124", "result": "0.0210±0.06718", "unit": "%"}
    ]}
  ]
}
